Assay results published in patent publication US10519111B2, “UV absorbing compounds, compositions comprising same and uses thereof” (CORAL SUNSCREEN PTY LTD, priority 2013, dated 2019).
Values joined by “and” are separate entries in the source; they are usually repeats but may differ in a detail not shown here. Equal values may be shown once.

Assay: UV absorption properties (λmax, molar extinction coefficient ε, efficiency E 1%, 1 cm)
Type: physicochemical
[1] = values in order of the λmax values
[2] = Table 7, values in order of the λmax values
[3] = Table 2, values in order of the λmax values

Structure (SMILES)	UV λmax	ε (molar extinction coefficient) [1]	further results
CC(C)=CC(=O)C1=CN(CC(C)C)CCC1(C)C [Compound 26, 1-(1-isobutyl-4,4-dimethyl-1,4,5,6-tetrahydropyridin-3-yl)-3-methylbut-2-en-1-one]	310 nm and 314 nm	19000 M⁻¹ cm⁻¹	
CC1(C)C=CN(c2ccccc2)CC1 [drawing 121]			E (1%, 1 cm) (Table 8a): 1205; ε (Table 8a): 22550 M⁻¹ cm⁻¹; λmax (Table 8a, N-phenyl compounds): 278 nm
CC(C)CN1C=C(C(=O)c2ccc3c(c2)CCO3)C(C)(C)CC1 [Compound 18, (2,3-dihydrobenzofuran-5-yl)(1-isobutyl-4,4-dimethyl-1,4,5,6-tetrahydropyridin-3-yl)methanone]	320 nm	22000 M⁻¹ cm⁻¹	
C=CC(=O)C1=CN(c2ccc(OC)cc2)CCC1(C)C [Compound 53, 1-(1-(4-methoxyphenyl)-4,4-dimethyl-1,4,5,6-tetrahydropyridin-3-yl)prop-2-en-1-one]	350 nm	21500 M⁻¹ cm⁻¹	
CC1(C)CCN(C(C)(C)C)C=C1C(=O)NCCCCCCNC(=O)C1=CN(C(C)(C)C)CCC1(C)C [Compound 181, N,N′-(hexane-1,6-diyl)bis(1-(tert-butyl)-4,4-dimethyl-1,4,5,6-tetrahydropyridine-3-carboxamide)]	289 nm	31072 M⁻¹ cm⁻¹	
CC1(C)C=CN(c2ccccc2)CC1 [Compound 46, 4,4-dimethyl-1-phenyl-1,2,3,4-tetrahydropyridine]	278 nm	22550 M⁻¹ cm⁻¹	
C=CC(=O)C1=CN(c2ccccc2)CCC1(C)C [Compound 48, 1-(4,4-dimethyl-1-phenyl-1,4,5,6-tetrahydropyridin-3-yl)prop-2-en-1-one]	346 nm	21000 M⁻¹ cm⁻¹	
CCC(=O)C1=CN(CC(C)C)C(=O)CC1(C)C [Compound 64, 1-isobutyl-4,4-dimethyl-5-propionyl-3,4-dihydropyridin-2(1H)-one]	291 nm		
CC1(C)C=CN(c2ccccc2)C=C1 [Compound 50, 4,4-dimethyl-1-phenyl-1,4-dihydropyridine]	285 nm	16000 M⁻¹ cm⁻¹	
C=C/C=C/CC(=O)C1=CN(CC(C)C)CCC1(C)C [drawing 109]			λmax (Table 7, unsaturated compounds): 311 nm; E (1%, 1 cm) [2]: 1053; ε [2]: 27500 M⁻¹ cm⁻¹
CC(C)CN1C=C(C(=O)c2ccc(Br)cc2)C(C)(C)CC1 [drawing 84]			E (1%, 1 cm) (Table 6A): 642; ε (Table 6A): 22500 M⁻¹ cm⁻¹; λmax (Table 6A, N-isobutyl-C3-benzoyl compounds): 318 nm
C=C/C=C/CC(=O)C1=CN(CC(C)C)CCC1(C)C [Compound 28, (E)-1-(1-isobutyl-4,4-dimethyl-1,4,5,6-tetrahydropyridin-3-yl)hexa-3,5-dien-1-one]	311 nm		
Cc1ccc(S(=O)(=O)NC(=O)C2=CN(C(C)(C)C)CCC2(C)C)cc1 [Compound 186, 1-(tert-butyl)-4,4-dimethyl-N-tosyl-1,4,5,6-tetrahydropyridine-3-carboxamide]	304 nm	34588 M⁻¹ cm⁻¹	
CC1(C)CCN(C(C)(C)C)C=C1C(=O)Nc1ccccc1 [Compound 179, 1-(tert-butyl)-4,4-dimethyl-N-phenyl-1,4,5,6-tetrahydropyridine-3-carboxamide]	308 nm	34834 M⁻¹ cm⁻¹	ε value (unit inferred): 35000 M⁻¹ cm⁻¹
C=CCCC(=O)C1=CN(CC(C)C)CCC1(C)C [Compound 8, 1-(1-Isobutyl-4,4-dimethyl-1,4,5,6-tetrahydropyridin-3-yl)pent-4-en-1-one]	308 nm	35000 M⁻¹ cm⁻¹	
CCC(=O)C1=C(c2ccccc2)N(CC(C)C)CCC1(C)C [Compound 58, 1-(1-isobutyl-4,4-dimethyl-2-phenyl-1,4,5,6-tetrahydropyridin-3-yl)propan-1-one]	338 nm	8000 M⁻¹ cm⁻¹	
COc1ccc(C(=O)C2=CN(CC(C)C)CCC2(C)C)c(OC)c1 [Compound 24, 2,4-dimethoxyphenyl(1-isobutyl-4,4-dimethyl-1,4,5,6-tetrahydropyridin-3-yl)methanone]	313 nm	9500 M⁻¹ cm⁻¹	
CCCCNC(=O)C1=CN(C(C)(C)C)CCC1(C)C [Compound 183, 1-(tert-butyl)-N-butyl-4,4-dimethyl-1,4,5,6-tetrahydropyridine-3-carboxamide]	288 nm	22531 M⁻¹ cm⁻¹	

Structure (SMILES)	UV λmax	ε (molar extinction coefficient) [1]	further results
C=CC(=O)C1=CN(C(C)(C)C)CCC1(C)C [Compound 154, 1-(1-(tert-butyl)-4,4-dimethyl-1,4,5,6-tetrahydropyridin-3-yl)prop-2-en-1-one]	328 nm	24907 M⁻¹ cm⁻¹	
CC(C)CN1C=C(C(=O)c2ccc(C(C)(C)C)cc2)C(C)(C)CC1 [drawing 51]			λmax (Table 2, compounds 11-13): 317 nm; Ε (1%, 1 cm) [3]: 581; ε [3]: 19000 M⁻¹ cm⁻¹
Cc1cc(N2C=CC(C)(C)C=C2)n(C)n1 [Compound 152, 1-(1,3-dimethyl-1H-pyrazol-5-yl)-4,4-dimethyl-1,4-dihydropyridine]	253 nm	11371 M⁻¹ cm⁻¹	
CC(C)CN1C=C(C(=O)C(C#N)=C(c2ccccc2)c2ccccc2)C(C)(C)CC1 [Compound 39]	297 nm and 317 nm	15750 M⁻¹ cm⁻¹ and 16150 M⁻¹ cm⁻¹	
C=C(C)CC(=O)C1=CN(CC(C)C)CCC1(C)C [drawing 108]			λmax (Table 7, unsaturated compounds): 306 nm; E (1%, 1 cm) [2]: 574; ε [2]: 14500 M⁻¹ cm⁻¹
CC1(C)CCN(C(C)(C)C)C=C1C(=O)Nc1cccc(NC(=O)C2=CN(C(C)(C)C)CCC2(C)C)c1 [Compound 188, N,N′-(1,3-phenylene)bis(1-(tert-butyl)-4,4-dimethyl-1,4,5,6-tetrahydropyridine-3-carboxamide)]	313 nm	55779 M⁻¹ cm⁻¹	
Cc1ccc(NC(=O)C2=CN(C(C)(C)C)CCC2(C)C)cc1NC(=O)C1=CN(C(C)(C)C)CCC1(C)C [Compound 184, N,N′-(4-methyl-1,3-phenylene)bis(1-(tert-butyl)-4,4-dimethyl-1,4,5,6-tetrahydropyridine-3-carboxamide)]	308 nm		
COc1ccc(N2C=C(C(=O)c3ccc(F)cc3)C(C)(C)CC2)cc1 [Compound 54, (4-fluorophenyl)(1-(4-methoxyphenyl)-4,4-dimethyl-1,4,5,6-tetrahydropyridin-3-yl)methanone]	341 nm	19350 M⁻¹ cm⁻¹	
CC1(C)CCN(C(C)(C)C)C=C1C(=O)Nc1ccc(NC(=O)C2=CN(C(C)(C)C)CCC2(C)C)cc1 [Compound 187, N,N′-(1,4-phenylene)bis(1-(tert-butyl)-4,4-dimethyl-1,4,5,6-tetrahydropyridine-3-carboxamide)]	322 nm	71962 M⁻¹ cm⁻¹	
Cc1nn(C)c(N2C=CC(C)(C)C=C2)c1C(=O)C(F)(F)F [Compound 200, 1-(5-(4,4-dimethylpyridin-1(4H)-yl)-1,3-dimethyl-1 H-pyrazol-4-yl)-2,2,2-trifluoroethanone]	253 nm	10016 M⁻¹ cm⁻¹	
CC(C)=CC(=O)C1=CN(CC(C)C)CCC1(C)C [drawing 107]			λmax (Table 7, unsaturated compounds): 314 nm; E (1%, 1 cm) [2]: 757; ε [2]: 19000 M⁻¹ cm⁻¹
CCC(=O)O/C(=C\C1=CC(C)(C)CCN1CC(C)C)CC [Compound 60, 1-(1-isobutyl-4,4-dimethyl-1,4,5,6-tetrahydropyridin-2-yl)but-1-en-2-yl propionate]	323 nm	20000 M⁻¹ cm⁻¹	
CC1(C)CCN(C(C)(C)C)C=C1C(=O)COc1ccccc1 [Compound 168, 1-(1-(tert-butyl)-4,4-dimethyl-1,4,5,6-tetrahydropyridin-3-yl)-2-phenoxyethanone]	313 nm	26154 M⁻¹ cm⁻¹	
CCC(=O)C1=CN(CC(C)C)C=CC1(C)C [Compound 65, 1-(1-isobutyl-4,4-dimethyl-1,4-dihydropyridin-3-yl)propan-1-one]	366 nm		
COc1ccc(C(=O)CC(=O)C2=CN(CC(C)C)CCC2(C)C)cc1 [Compound 13, 1-(1-isobutyl-4,4-dimethyl-1,4,5,6-tetrahydropyridin-3-yl)-3-(4-methoxyphenyl)propane-1,3-dione]	293 nm and 396 nm	14250 M⁻¹ cm⁻¹ and 11150 M⁻¹ cm⁻¹	
COc1ccc(N2C=CC(C)(C)CC2)cc1 [Compound 51, 1-(4-methoxyphenyl)-4,4-dimethyl-1,2,3,4-tetrahydropyridine]	278 nm	22550 M⁻¹ cm⁻¹	
C=C(C)C(=O)C1=CN(CC(C)C)CCC1(C)C [drawing 116]			λmax (Table 7, unsaturated compounds): 310 nm; E (1%, 1 cm) [2]: 806; ε [2]: 18950 M⁻¹ cm⁻¹
C=CCC(=O)C1=CN(CC(C)C)CCC1(C)C [Compound 29, 1-(1-isobutyl-4,4-dimethyl-1,4,5,6-tetrahydropyridin-3-yl)but-3-en-1-one]	310 nm		
